The target in data set [1] is Matrix metalloproteinase-9 (Homo sapiens, UniProt P14780). The data set is classed as cell-based.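 Also: inhibition of isolated MMP-9 enzyme activity toward a synthetic peptide substrate, from the DrugMatrix protease screening panel; in other assays of this panel Not Active means under 50% inhibition at 10 µM.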
For another data set, the target named is T1, Adenosine receptor A1 (Homo sapiens, UniProt P30542).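 Also: radioligand binding assay at the adenosine A1 receptor, with DPCPX serving as the labelled ligand; in other assays of this panel Not Active means under 50% inhibition at 10 µM.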
T1 sequence (P30542 whole entry): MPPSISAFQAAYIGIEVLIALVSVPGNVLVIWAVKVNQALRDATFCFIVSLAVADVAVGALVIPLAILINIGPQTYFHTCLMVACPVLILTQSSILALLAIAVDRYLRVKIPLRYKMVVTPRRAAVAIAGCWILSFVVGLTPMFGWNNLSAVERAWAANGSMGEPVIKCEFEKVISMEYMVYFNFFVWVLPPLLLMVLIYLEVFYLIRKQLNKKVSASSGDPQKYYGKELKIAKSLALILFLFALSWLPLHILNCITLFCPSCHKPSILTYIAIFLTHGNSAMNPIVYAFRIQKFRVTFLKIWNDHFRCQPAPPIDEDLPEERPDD
The data set is classed as cell membranes, CHO, Membrane. The conditions noted are these: cho.

Data set [2] in a line: DRUGMATRIX: Potassium Channel [KATP] radioligand binding (ligand: [3H] Glyburide). In kind it is cell membranes, Membrane. The conditions noted are these: hit-t15, Not Active = under 50% inhibition at 10 µM.
Data set [3] addresses T2, Alpha-1B adrenergic receptor (Rattus norvegicus, UniProt P15823).
T2 sequence (P15823 whole entry): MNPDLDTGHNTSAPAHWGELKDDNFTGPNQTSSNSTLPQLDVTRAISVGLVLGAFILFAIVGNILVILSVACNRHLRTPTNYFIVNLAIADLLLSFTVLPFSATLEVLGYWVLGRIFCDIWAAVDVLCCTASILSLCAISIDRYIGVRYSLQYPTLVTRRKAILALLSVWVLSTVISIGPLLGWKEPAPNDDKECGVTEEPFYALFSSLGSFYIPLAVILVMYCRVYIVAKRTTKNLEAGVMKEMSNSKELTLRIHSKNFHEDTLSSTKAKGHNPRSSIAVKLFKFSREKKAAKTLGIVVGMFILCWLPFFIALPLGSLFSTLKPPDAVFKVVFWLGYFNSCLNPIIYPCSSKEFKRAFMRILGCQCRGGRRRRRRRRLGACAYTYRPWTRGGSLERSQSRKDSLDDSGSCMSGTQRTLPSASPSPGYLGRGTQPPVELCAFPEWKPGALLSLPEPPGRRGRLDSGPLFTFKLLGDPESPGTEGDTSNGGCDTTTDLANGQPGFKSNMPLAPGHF
As to the kind of experiment: DRUGMATRIX: Alpha-1B adrenergic receptor radioligand binding (ligand: prazosin). The conditions noted are these: Not Active = under 50% inhibition at 10 µM. In kind it is cell membranes, Wistar, Liver, Membrane.

For data set [4], the target named is Platelet-activating factor receptor (Homo sapiens, UniProt P25105). The data set is classed as tissue-based. Also: in other assays of this panel Not Active means under 50% inhibition at 10 µM.
A further data set concerns the target Cytochrome P450 2C9 (Homo sapiens, UniProt P11712). Conditions: bti-tn-5b1-4. Also: in other assays of this panel Not Active means under 50% inhibition at 10 µM.

Structures are written as SMILES.

Platelet-activating factor receptor, sequence (P25105 whole entry): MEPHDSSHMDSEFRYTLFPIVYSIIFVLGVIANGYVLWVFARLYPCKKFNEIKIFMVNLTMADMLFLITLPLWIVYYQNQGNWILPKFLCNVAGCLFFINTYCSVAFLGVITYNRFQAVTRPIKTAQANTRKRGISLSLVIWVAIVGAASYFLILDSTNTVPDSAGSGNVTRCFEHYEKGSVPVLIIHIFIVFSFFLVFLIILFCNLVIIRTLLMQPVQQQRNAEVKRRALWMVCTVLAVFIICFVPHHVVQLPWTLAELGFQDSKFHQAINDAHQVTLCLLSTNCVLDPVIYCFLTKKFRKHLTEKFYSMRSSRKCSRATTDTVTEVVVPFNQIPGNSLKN
Matrix metalloproteinase-9, sequence (P14780 whole entry): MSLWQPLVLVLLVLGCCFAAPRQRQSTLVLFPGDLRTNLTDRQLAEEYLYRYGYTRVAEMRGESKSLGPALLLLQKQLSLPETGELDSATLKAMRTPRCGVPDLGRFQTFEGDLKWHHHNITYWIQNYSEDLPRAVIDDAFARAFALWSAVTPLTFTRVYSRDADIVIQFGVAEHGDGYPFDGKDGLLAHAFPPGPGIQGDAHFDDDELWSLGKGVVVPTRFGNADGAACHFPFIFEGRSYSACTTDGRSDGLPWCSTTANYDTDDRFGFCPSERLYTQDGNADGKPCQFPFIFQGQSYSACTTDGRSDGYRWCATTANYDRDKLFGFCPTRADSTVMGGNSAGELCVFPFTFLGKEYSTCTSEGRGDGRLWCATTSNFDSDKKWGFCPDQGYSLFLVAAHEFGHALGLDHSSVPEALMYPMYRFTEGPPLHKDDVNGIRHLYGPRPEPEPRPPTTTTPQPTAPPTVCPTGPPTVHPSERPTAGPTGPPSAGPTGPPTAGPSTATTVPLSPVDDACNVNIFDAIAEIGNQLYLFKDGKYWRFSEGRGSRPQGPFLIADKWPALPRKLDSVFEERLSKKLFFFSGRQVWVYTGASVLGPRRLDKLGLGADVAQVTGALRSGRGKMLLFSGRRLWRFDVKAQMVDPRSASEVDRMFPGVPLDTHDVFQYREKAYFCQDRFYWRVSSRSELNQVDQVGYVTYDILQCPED
Cytochrome P450 2C9, sequence (P11712 whole entry): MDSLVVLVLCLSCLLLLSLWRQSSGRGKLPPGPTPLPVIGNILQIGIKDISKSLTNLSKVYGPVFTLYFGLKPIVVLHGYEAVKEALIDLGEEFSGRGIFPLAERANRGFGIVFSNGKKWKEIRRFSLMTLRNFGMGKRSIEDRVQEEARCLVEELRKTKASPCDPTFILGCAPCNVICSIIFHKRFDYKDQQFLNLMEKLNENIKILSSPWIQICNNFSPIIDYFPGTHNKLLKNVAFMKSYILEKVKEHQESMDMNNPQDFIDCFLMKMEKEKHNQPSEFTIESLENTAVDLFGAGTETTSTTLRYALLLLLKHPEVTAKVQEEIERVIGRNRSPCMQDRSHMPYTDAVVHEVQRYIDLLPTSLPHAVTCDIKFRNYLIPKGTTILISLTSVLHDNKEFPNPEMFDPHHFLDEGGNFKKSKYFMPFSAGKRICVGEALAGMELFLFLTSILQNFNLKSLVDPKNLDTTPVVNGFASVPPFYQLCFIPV

In the case of `CCOc1nc2cccc(C(=O)O)c2n1Cc1ccc(-c2ccccc2-c2nnn[nH]2)cc1`, the IC50 entry (in data set [1]; against Adenosine receptor A1; in data set [2]; in data set [3]; in data set [4]) was “Not Active” each time. For the same compound, the inhibitory constant (Ki) result in data set [2] is given as “Not Active”.
Consider `O=C(c1ccccc1F)N1CCC(Cc2ccccc2)CC1`, for which the IC50 entry (in data set [1]; on Adenosine receptor A1; in data set [2]; in data set [3]; in data set [4]) was “Not Active” in each case. Also, the Ki entry in data set [2] is listed as “Not Active”.
Turning to `NC12CC3CC(CC(C3)C1)C2` [AMANTADINE], the IC50 entry (in data set [1]; against Adenosine receptor A1; in data set [2]; in data set [3]; in data set [4]) was “Not Active” throughout. Moreover, in data set [2], the Ki entry is “Not Active”.
Take `CC(C)c1c(C(=O)Nc2ccccc2)c(-c2ccccc2)c(-c2ccc(F)cc2)n1CC[C@@H](O)C[C@@H](O)CC(=O)O` [ATORVASTATIN]: the IC50 result (in data set [1]; against Adenosine receptor A1; in data set [2]; in data set [3]; in data set [4]) was “Not Active” in each case. Also, the Ki entry in data set [2] is reported as “Not Active”.
`Cn1c(=O)c2c(ncn2C)n(C)c1=O` [CAFFEINE]: the IC50 entry (in data set [1]; against Cytochrome P450 2C9; in data set [2]; in data set [3]; in data set [4]) was “Not Active” each time. Further, the Ki result (at Cytochrome P450 2C9; in data set [2]) was “Not Active” each time.
Turning to `CC(C)C[C@H]1C(=O)N2CCC[C@H]2[C@]2(O)O[C@](NC(=O)[C@@H]3C=C4c5cccc6[nH]cc(c56)C[C@H]4N(C)C3)(C(C)C)C(=O)N12` [ERGOCRYPTINE], the IC50 entry was “Not Active” in data set [1]; “Not Active” against Adenosine receptor A1; “Not Active” in data set [2]; 14 nM in data set [3] (read-out: IC50); “Not Active” in data set [4]. Moreover, the Ki entry in data set [2] was “Not Active”; in data set [3] (read-out: Ki), 7.94 nM.
On to `CC(C)(C(=O)O)c1ccc(C(O)CCCN2CCC(C(O)(c3ccccc3)c3ccccc3)CC2)cc1` (stereo not drawn) [FEXOFENADINE], for which the IC50 result (in data set [1]; against Adenosine receptor A1; in data set [2]; in data set [3]; in data set [4]) was “Not Active” throughout. Besides, the inhibition constant Ki entry in data set [2] is reported as “Not Active”.
Regarding `CC(=O)OCC(=O)[C@@]12OC(C)(C)O[C@@H]1C[C@H]1[C@@H]3C[C@H](F)C4=CC(=O)C=C[C@]4(C)[C@@]3(F)[C@@H](O)C[C@@]12C` [FLUOCINONIDE], the IC50 entry (in data set [1]; against Adenosine receptor A1; in data set [2]; in data set [3]; in data set [4]) was “Not Active” each time. Also, the Ki result in data set [2] is “Not Active”.
For the compound `CCC1=C(C)CN(C(=O)NCCc2ccc(S(=O)(=O)NC(=O)N[C@H]3CC[C@H](C)CC3)cc2)C1=O` [GLIMEPIRIDE], the IC50 result in data set [1] was “Not Active”; at Adenosine receptor A1, “Not Active”; in data set [2] (read-out: IC50) it was 100 nM; in data set [3], “Not Active”; in data set [4], “Not Active”. The Ki in data set [2] (read-out: Ki) worked out at 11 nM.
Regarding `N[C@@H](Cn1ccc(=O)c(O)c1)C(=O)O` [L-MIMOSINE], the IC50 result (in data set [1]; on Adenosine receptor A1; in data set [2]; in data set [3]; in data set [4]) was “Not Active” throughout. Besides, the Ki result in data set [2] is on record as “Not Active”.
As to `CC(C)(C)NCC(O)COc1cccc2c1CC(O)C(O)C2` (stereo not drawn) [NADOLOL], the IC50 entry (in data set [1]; against Adenosine receptor A1; in data set [2]; in data set [3]; in data set [4]) was “Not Active” throughout. In data set [2], the Ki result is “Not Active”.

These data come from ChEMBL document CHEMBL1909046, “DrugMatrix in vitro pharmacology data”.
